The text below walks through data of patent publication US20250011368A1, “DLL3 TARGETING PEPTIDES AND CONSTRUCTS THEREOF” (MARIANA ONCOLOGY INC., priority 2023, published 2025).

Numbered stars: 1 amine (or outer) side, 2 acyl side, 3 side chain; on linkers, the order of the positions; unused ones are H or OH. Bridge positions count the residues as written; N and C are the ends. Square brackets hold non-standard residues; d marks the D form. Side chains are listed from the residue outwards. Peptide text beside a SMILES is read from it. * marks the point of attachment. PEG24 = NCCOCCOCCOCCOCCOCCOCCOCCOCCOCCOCCOCCOCCOCCOCCOCCOCCOCCOCCOCCOCCOCCOCCOCCOCCC(=O)O; Ala(piperidin-4-yl) = O=C([C@H](CC1CCN([*:3])CC1)N[*:1])[*:2]; DOTA = O=C(O)CN1CCN(CC(=O)O)CCN(CC(=O)*)CCN(CC(=O)O)CC1; Phe(4-CF3) = N[C@@H](Cc1ccc(C(F)(F)F)cc1)C(=O)O; Trp(5-F) = N[C@@H](Cc1c[nH]c2ccc(F)cc12)C(=O)O; Trp(7-Me) = Cc1cccc2c(C[C@H](N)C(=O)O)c[nH]c12; Phe(2-CF3) = N[C@@H](Cc1ccccc1C(F)(F)F)C(=O)O; Trp(7-aza) = N[C@@H](Cc1c[nH]c2ncccc12)C(=O)O; Pro(trans-4-F) = O=C(O)[C@@H]1C[C@@H](F)CN1; Phe(4-F) = N[C@@H](Cc1ccc(F)cc1)C(=O)O; γGlu = O=C(O)[C@H](CCC(=O)[*:2])N[*:1]; 1Nal = N[C@@H](Cc1cccc2ccccc12)C(=O)O; 2Nal = N[C@@H](Cc1ccc2ccccc2c1)C(=O)O; Nva(3-Et) = CCC(CC)[C@H](N)C(=O)O; Palmitoyl = CCCCCCCCCCCCCCCC(=O)*; X7 = C[C@@]1(C(=O)[*:2])CCN1[*:1]; Trx = NC[C@H]1CC[C@H](C(=O)O)CC1; Chg = N[C@H](C(=O)O)C1CCCCC1; NMeNle = CCCC[C@H](NC)C(=O)O; αMeP = C[C@@]1(C(=O)O)CCCN1; CH2 = C([*:1])[*:2]

One may read the Kd as the free concentration of one partner at which half of the binding sites on the other are occupied at equilibrium, for simple one-to-one binding.

In the assay the target is T1, human DLL3 (Homo sapiens, UniProt Q9NYJ7).
T1 sequence (Q9NYJ7 27-618): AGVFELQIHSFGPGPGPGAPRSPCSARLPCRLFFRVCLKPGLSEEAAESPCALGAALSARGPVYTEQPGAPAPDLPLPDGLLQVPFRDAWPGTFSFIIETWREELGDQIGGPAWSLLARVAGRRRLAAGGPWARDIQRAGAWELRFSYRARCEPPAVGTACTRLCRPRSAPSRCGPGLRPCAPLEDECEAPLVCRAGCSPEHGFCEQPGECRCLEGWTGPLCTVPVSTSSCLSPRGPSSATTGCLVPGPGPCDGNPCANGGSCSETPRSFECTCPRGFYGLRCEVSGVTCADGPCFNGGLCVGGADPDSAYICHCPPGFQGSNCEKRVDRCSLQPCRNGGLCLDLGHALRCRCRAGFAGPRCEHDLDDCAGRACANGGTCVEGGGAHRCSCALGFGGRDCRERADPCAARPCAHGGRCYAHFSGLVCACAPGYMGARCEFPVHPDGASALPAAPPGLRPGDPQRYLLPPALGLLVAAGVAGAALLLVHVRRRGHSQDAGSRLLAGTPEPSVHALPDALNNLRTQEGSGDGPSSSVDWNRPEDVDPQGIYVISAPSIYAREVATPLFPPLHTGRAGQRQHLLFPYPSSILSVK
Kind of assay: Affinity determination by Surface Plasmon Resonance (SPR). Type of assay: binding. The following applies: 25° C., biotinylated human DLL3 immobilized on streptavidin sensor chip, 1:1 binding model; read-out: SPR KD. The method in brief:
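Kinetic and affinity constants were derived by fitting sensorgrams to a 1:1 binding model. Graded compound concentrations flowed at 100 μL/minute in 20 mM phosphate running buffer with 2% DMSO over streptavidin-immobilized biotinylated human DLL3, reference-subtracted.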
For `CC(=O)N[C@@H](Cc1c[nH]c2ccc(F)cc12)C(=O)N[C@H](C(=O)N[C@@H](Cc1ccccc1C(F)(F)F)C(=O)N[C@H]1CSSC[C@@H](C(=O)N[C@@H](Cc2c[nH]c3ncccc23)C(=O)N2C[C@H](F)C[C@H]2C(=O)N[C@H](CCCCNC(=O)CN2CCN(CC(=O)O)CCN(CC(=O)O)CCN(CC(=O)O)CC2)C(N)=O)NC(=O)[C@H](CC(=O)O)NC(=O)[C@H](Cc2cnc[nH]2)NC(=O)[C@H](Cc2ccc(F)cc2)NC(=O)[C@H](CC(N)=O)NC(=O)[C@H](CC(N)=O)NC1=O)[C@@H](C)O` [compound 136, Ac-(5Fluoro-W)-T-(2CF3-F)-C(3)-N-N-(4Fluoro-F)-H-D-C(3)-(7Aza-W)-(trans4Fluoro-P)-[D-Lys(DOTA)]-NH2] (Ac-[Trp(5-F)]T[Phe(2-CF3)]CNN[Phe(4-F)]HDC[Trp(7-aza)][Pro(trans-4-F)][dK](DOTA)-NH2; disulfide 4-10), the Kd lay within 1 to 10 nM.
Turning to `CC(=O)N[C@@H](Cc1c[nH]c2ccc(F)cc12)C(=O)N[C@H](C(=O)N[C@H](C(=O)N[C@H]1CSSC[C@@H](C(=O)N[C@@H](Cc2c[nH]c3ncccc23)C(=O)N2C[C@H](F)C[C@H]2C(=O)N[C@H](CCCCNC(=O)CN2CCN(CC(=O)O)CCN(CC(=O)O)CCN(CC(=O)O)CC2)C(N)=O)NC(=O)[C@H](CC(=O)O)NC(=O)[C@H](Cc2cnc[nH]2)NC(=O)[C@H](Cc2ccc(C(F)(F)F)cc2)NC(=O)[C@H](CC(N)=O)NC(=O)[C@H](CC(N)=O)NC1=O)C1CCCCC1)[C@@H](C)O` [compound 151, Ac-(5Fluoro-W)-T-(Chg)-C(3)-N-N-(4CF3-F)-H-D-C(3)-(7Aza-W)-(trans4Fluoro-P)-[D-Lys(DOTA)]-NH2] (Ac-[Trp(5-F)]T[Chg]CNN[Phe(4-CF3)]HDC[Trp(7-aza)][Pro(trans-4-F)][dK](DOTA)-NH2; disulfide 4-10), the Kd lay in the range of 1 to 10 nM.
On to `CCC(CC)[C@H](NC(=O)[C@@H](NC(=O)[C@H](Cc1c[nH]c2ccccc12)NC(C)=O)[C@@H](C)O)C(=O)N[C@H]1CSSC[C@@H](C(=O)N[C@@H](Cc2c[nH]c3ncccc23)C(=O)N2CCC[C@H]2C(=O)N[C@H](CCCCNC(=O)CN2CCN(CC(=O)O)CCN(CC(=O)O)CCN(CC(=O)O)CC2)C(N)=O)NC(=O)[C@H](CC(=O)O)NC(=O)[C@H](Cc2c[nH]cn2)NC(=O)[C@H](Cc2ccc3ccccc3c2)NC(=O)[C@H](C)NC(=O)[C@H](CC(N)=O)NC1=O` [compound 199, Ac-W-T-(Env)-C(3)-N-A-(2Nal)-H-D-C(3)-(7-Aza-W)-P-[D-Lys(DOTA)]-NH2] (Ac-WT[Nva(3-Et)]CNA[2Nal]HDC[Trp(7-aza)]P[dK](DOTA)-NH2; disulfide 4-10), for which the dissociation constant (Kd) was less than 1 nM.
Regarding `CC[C@H](C)[C@H](NC(=O)[C@@H](NC(=O)[C@H](Cc1c[nH]c2ccccc12)NC(C)=O)[C@@H](C)O)C(=O)N[C@H]1CSSC[C@@H](C(=O)N[C@@H](Cc2c[nH]c3ccccc23)C(=O)N2CC[C@@]2(C)C(=O)N[C@H](CCCCNC(=O)CN2CCN(CC(=O)O)CCN(CC(=O)O)CCN(CC(=O)O)CC2)C(N)=O)NC(=O)[C@H](CC(=O)O)NC(=O)[C@H](Cc2c[nH]cn2)NC(=O)[C@H](Cc2ccc3ccccc3c2)NC(=O)[C@H](CC(N)=O)NC(=O)[C@H](CC(N)=O)NC1=O` [compound 360, Ac-W-T-I-C(3)-N-N-(2Nal)-H-D-C(3)-W-aMe-Aze-[D-Lys(DOTA)]-NH2] (Ac-WTICNN[2Nal]HDCW[X7][dK](DOTA)-NH2; disulfide 4-10), the Kd is less than 1 nM.
Consider `CC[C@H](C)[C@H](NC(=O)[C@@H](NC(=O)[C@H](Cc1c[nH]c2ccccc12)NC(C)=O)[C@@H](C)O)C(=O)N[C@H]1CSSC[C@@H](C(=O)N[C@@H](Cc2c[nH]c3ccccc23)C(=O)N2CCC[C@H]2C(=O)N[C@H](CCCCNC(=O)CN2CCN(CC(=O)O)CCN(CC(=O)O)CCN(CC(=O)O)CC2)C(N)=O)NC(=O)[C@H](CC(=O)O)NC(=O)[C@H](Cc2cnc[nH]2)NC(=O)[C@H](Cc2c[nH]c3c(C)cccc23)NC(=O)[C@H](CC(N)=O)NC(=O)[C@H](CC(N)=O)NC1=O` [compound 295, Ac-W-T-I-C(3)-N-N-(7-Me-W)-H-D-C(3)-W-P-[D-Lys(DOTA)]-NH2] (Ac-WTICNN[Trp(7-Me)]HDCWP[dK](DOTA)-NH2; disulfide 4-10), for which the Kd is less than 1 nM.
Turning to `CC(=O)N[C@@H](Cc1c[nH]c2ccccc12)C(=O)N[C@H](C(=O)N[C@@H](Cc1cccc2ccccc12)C(=O)N[C@H]1CSSC[C@@H](C(=O)N[C@@H](Cc2c[nH]c3ccccc23)C(=O)N2CCC[C@H]2C(=O)N[C@H](CCCCNC(=O)CN2CCN(CC(=O)O)CCN(CC(=O)O)CCN(CC(=O)O)CC2)C(N)=O)NC(=O)[C@H](CC(=O)O)NC(=O)[C@H](Cc2c[nH]cn2)NC(=O)[C@H](Cc2c[nH]c3ccccc23)NC(=O)[C@H](CC(N)=O)NC(=O)[C@H](CC(N)=O)NC1=O)[C@@H](C)O` [compound 107, Ac-W-T-(1Nal)-C(3)-N-N-W-H-D-C(3)-W-P-[D-Lys(DOTA)]-NH2] (Ac-WT[1Nal]CNNWHDCWP[dK](DOTA)-NH2; disulfide 4-10), the Kd was 10 to 100 nM.
Consider `CC[C@H](C)[C@H](NC(=O)[C@@H](NC(=O)[C@H](Cc1c[nH]c2ccccc12)NC(C)=O)[C@@H](C)O)C(=O)N[C@H]1CSSC[C@@H](C(=O)N[C@@H](Cc2c[nH]c3ccccc23)C(=O)N2CCC[C@H]2C(=O)NC[C@H]2CC[C@H](C(=O)NC[C@H]3CC[C@H](C(=O)N[C@H](CCCCNC(=O)CN4CCN(CC(=O)O)CCN(CC(=O)O)CCN(CC(=O)O)CC4)C(N)=O)CC3)CC2)NC(=O)[C@H](CC(=O)O)NC(=O)[C@H](Cc2cnc[nH]2)NC(=O)[C@H](Cc2ccc3ccccc3c2)NC(=O)[C@H](CC(N)=O)NC(=O)[C@H](CC(N)=O)NC1=O` [compound 373, Ac-W-T-I-C(3)-N-N-(2Nal)-H-D-C(3)-W-P-(Cyx)2-[D-Lys(DOTA)]-NH2] (Ac-WTICNN[2Nal]HDCWP[Trx][Trx][dK](DOTA)-NH2; disulfide 4-10), for which the Kd is less than 1 nM.
With `CC[C@H](C)[C@H](NC(=O)[C@@H](NC(=O)[C@H](Cc1c[nH]c2ccccc12)NC(C)=O)[C@@H](C)O)C(=O)N[C@H]1CSSC[C@@H](C(=O)N[C@@H](Cc2c[nH]c3ccccc23)C(=O)N2CCC[C@@]2(C)C(=O)N[C@H](CCCCNC(=O)CN2CCN(CC(=O)O)CCN(CC(=O)O)CCN(CC(=O)O)CC2)C(N)=O)NC(=O)[C@H](CC(=O)O)NC(=O)[C@H](Cc2c[nH]cn2)NC(=O)[C@H](Cc2c[nH]c3ccccc23)NC(=O)[C@H](CC(N)=O)NC(=O)[C@H](CC(N)=O)NC1=O` [compound 105, Ac-W-T-I-C(3)-N-N-W-H-D-C(3)-W-(aMe-P)-[D-Lys(DOTA)]-NH2] (Ac-WTICNNWHDCW[αMeP][dK](DOTA)-NH2; disulfide 4-10), the Kd lay in the range of 1 to 10 nM.
For `CCCCCCCCCCCCCCCC(=O)N[C@@H](CCC(=O)NCCOCCOCCOCCOCCOCCOCCOCCOCCOCCOCCOCCOCCOCCOCCOCCOCCOCCOCCOCCOCCOCCOCCOCCOCCC(=O)NCCCC[C@@H]1NC(=O)[C@H](Cc2ccc3ccccc3c2)NC(=O)[C@H](CC(N)=O)NC(=O)[C@H](CC2CCNCC2)NC(=O)[C@@H](NC(=O)[C@H](CCCC)N(C)C(=O)[C@@H](NC(=O)[C@H](Cc2c[nH]c3ccccc23)NC(C)=O)[C@@H](C)O)CSSC[C@@H](C(=O)N[C@@H](Cc2c[nH]c3ccccc23)C(=O)N2CCC[C@H]2C(=O)N[C@H](CCCCNC(=O)CN2CCN(CC(=O)O)CCN(CC(=O)O)CCN(CC(=O)O)CC2)C(N)=O)NC(=O)[C@H](CC(=O)O)NC1=O)C(=O)O` [compound 427, Ac-W-T-(NMe-Nle)-C(3)-[3-(4-piperidinyl)-Ala]-N-(2Nal)-Lys(PEG24-[gE(C16)]-OH)-D-C(3)-W-P-[D-Lys(DOTA)]-NH2] (Ac-WT[NMeNle]C[Ala(piperidin-4-yl)]N[2Nal]K([PEG24-γGlu-Palmitoyl])DCWP[dK](DOTA)-NH2; disulfide 4-10), the Kd lay within 10 to 100 nM.
With `CC[C@H](C)[C@H](NC(=O)[C@@H](NC(=O)[C@H](Cc1c[nH]c2ccccc12)NC(C)=O)[C@@H](C)O)C(=O)N[C@H]1CSCSC[C@@H](C(=O)N[C@@H](Cc2c[nH]c3ccccc23)C(=O)N2CCC[C@H]2C(=O)N[C@H](CCCCNC(=O)CN2CCN(CC(=O)O)CCN(CC(=O)O)CCN(CC(=O)O)CC2)C(N)=O)NC(=O)[C@H](CC(=O)O)NC(=O)[C@H](Cc2cnc[nH]2)NC(=O)[C@H](Cc2c[nH]c3ccccc23)NC(=O)[C@H](CC(N)=O)NC(=O)[C@H](CC(N)=O)NC1=O` [compound 164, Ac-WTI-C(1)-NNWHD-C(1)-WP-[D-Lys(DOTA)]-NH2] (Ac-WTICNNWHDCWP[dK](DOTA)-NH2; linker 4-10 via CH2), the Kd is 1 to 10 nM.
The figure for `CC[C@H](C)[C@H](NC(=O)[C@@H](NC(=O)[C@H](Cc1c[nH]c2ccccc12)NC(C)=O)[C@@H](C)O)C(=O)N[C@H]1CSSC[C@@H](C(=O)N[C@@H](Cc2c[nH]c3ccccc23)C(=O)N2CCC[C@H]2C(=O)N[C@H](CCCCNC(=O)CN2CCN(CC(=O)O)CCN(CC(=O)O)CCN(CC(=O)O)CC2)C(N)=O)NC(=O)[C@H](CC(=O)O)NC(=O)[C@H](CCC(=O)O)NC(=O)[C@H](Cc2c[nH]c3ccccc23)NC(=O)[C@H](CC(N)=O)NC(=O)[C@H](CC(N)=O)NC1=O` [compound 274, Ac-W-T-I-C(3)-N-N-W-Glu-D-C(3)-W-P-[D-Lys(DOTA)]-NH2] (Ac-WTICNNWEDCWP[dK](DOTA)-NH2; disulfide 4-10) is 1 to 10 nM.
